Numbered stars: 1 amine (or outer) side, 2 acyl side, 3 side chain; on linkers, the order of the positions; unused ones are H or OH. Bridge positions count the residues as written; N and C are the ends. Square brackets hold non-standard residues; d marks the D form. Peptide text beside a SMILES is read from it. * marks the point of attachment. hPhe(3,5-F2-4-CF3) = N[C@@H](CCc1cc(F)c(C(F)(F)F)c(F)c1)C(=O)O; hPhe(3-Cl-4-CF3) = N[C@@H](CCc1ccc(C(F)(F)F)c(Cl)c1)C(=O)O; X27 = CN([C@@H](Cc1ccc(C(F)(F)F)nc1)C(=O)[*:2])[*:1]; NMePhe(4-CF3) = CN[C@@H](Cc1ccc(C(F)(F)F)cc1)C(=O)O; NMePhe(4-Me) = CN[C@@H](Cc1ccc(C)cc1)C(=O)O; NMedβ3hAla = C[C@H](CC(=O)[*:2])N(C)[*:1]; NMeGly(cPent) = CN[C@H](C(=O)O)C1CCCC1; Pro(4,4-F2) = O=C(O)[C@@H]1CC(F)(F)CN1; NMeGly(cBu) = CN[C@H](C(=O)O)C1CCC1; NMeCha = CN[C@@H](CC1CCCCC1)C(=O)O; NMehLeu = CN[C@@H](CCC(C)C)C(=O)O; Hyp = O=C(O)[C@@H]1C[C@@H](O)CN1; NMeAhp(2) = CCCCC[C@H](NC)C(=O)O; NMeChg = CN[C@H](C(=O)O)C1CCCCC1; NMeI = CC[C@H](C)[C@H](NC)C(=O)O; NMeD = CN[C@@H](CC(=O)O)C(=O)O; NMeL = CN[C@@H](CC(C)C)C(=O)O; NMeV = CN[C@H](C(=O)O)C(C)C; d(β3hA) = C[C@@H](N)CC(=O)O; NMeC = CN[C@@H](CS)C(=O)O; NMeS = CN[C@@H](CO)C(=O)O; Ac6c = NC1(C(=O)O)CCCCC1; Morpholide = C1CN(*)CCO1; NMeA = CN[C@@H](C)C(=O)O; NMeAib = CNC(C)(C)C(=O)O; Piperidide = C1CCN(*)CC1; Pyrrolidide = C1CCN(*)C1; dNMeA = CN[C@H](C)C(=O)O; Ac5c = NC1(C(=O)O)CCCC1; Aze = O=C(O)[C@@H]1CCN1; CH2CMe2OH = CC(C)(O)C*; Cyclobutyl = C1CC(*)C1; Aib = CC(C)(N)C(=O)O; Isopentyl = CC(C)CC*; NEtG = CCNCC(=O)O; Sar = CNCC(=O)O
Tests used:
[1] = biological target: protein-protein interaction between Kras and SOS1 (biotin-tagged human Kras loaded with GDP, His-tagged human SOS1) (Homo sapiens (Human), UniProt P01116, G12D); test: Protein-protein interaction inhibition between Kras and SOS1 (KrasG12D-SOS PPI) using AlphaScreen; type: biochemical; conditions: AlphaScreen; biotin-tagged human Kras loaded with GDP, His-tagged human SOS1; read-out: KRAS G12D-SOS PPI IC50;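 note: kras produced in E. coli, Ni-coupled donor beads and streptavidin acceptor beads, excitation 680 nm with emission detected at 520–620 nm via singlet oxygen transfer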
[2] = tested on: Human pancreatic cancer cell line AsPC-1 (G12D mutation Kras); test: AsPC-1 cell growth inhibition (AsPC-1 CGI); type: cell-based; conditions: read-out: AsPC-1 cell growth inhibition, 50% growth inhibitory concentration (IC50 value); 96 hours, CellTiter-Glo, values classified in ranges

| Compound | IC50 [1] [nM] | IC50 [2] [nM] |
| --- | --- | --- |
| CC[C@H](C)[C@@H]1NC(=O)[C@H](CC(C)C)N(C)C(=O)C[C@@H](C)N(C)C(=O)[C@H](CC(C)C)NC(=O)C(C)(C)N(C)C(=O)[C@H](CC(C)C)NC(=O)[C@H](CCc2ccc(C(F)(F)F)c(Cl)c2)NC(=O)CN(C)C(=O)[C@H](Cc2ccc(C)cc2)N(C)C(=O)CN(C)C(=O)CN(C)C1=O [Compound 1388] (cyclo(I[Sar][Sar][NMePhe(4-Me)][Sar][hPhe(3-Cl-4-CF3)]L[NMeAib]L[NMedβ3hAla][NMeL])) | 10 | > 500 |
| CC(C)C[C@H]1C(=O)N[C@@H](COC2CCC2)C(=O)N(C)[C@@H](C)C(=O)N2CC[C@H]2C(=O)N(C)[C@@H](CC2CCCCC2)C(=O)N(C)CC(=O)N[C@@H](CCc2ccc(C(F)(F)F)c(Cl)c2)C(=O)N2CCC[C@H]2C(=O)NC2(CCCC2)C(=O)N(C)[C@@H](C(C)C)C(=O)N(C)[C@H](C(=O)N2CCCCC2)CC(=O)N1C [Compound 45] ([NMeL]S(Cyclobutyl)[NMeA][Aze][NMeCha][Sar][hPhe(3-Cl-4-CF3)]P[Ac5c][NMeV][NMeD]-Piperidide; lactam N-11) | 84 | > 500 |
| CC[C@H](C)[C@@H]1NC(=O)[C@H](CC(C)C)N(C)C(=O)C[C@@H](C)N(C)C(=O)[C@H]([C@@H](C)CC)N(C)C(=O)C2(CCCC2)NC(=O)[C@@H]2CCCN2C(=O)[C@H](CCc2ccc(C(F)(F)F)c(Cl)c2)NC(=O)CN(C)C(=O)[C@H](CC2CCCCC2)N(C)C(=O)[C@@H]2CCN2C(=O)[C@H](C)N(C)C1=O [Compound 1733] (cyclo([Ac5c][NMeI][NMedβ3hAla][NMeL]I[NMeA][Aze][NMeCha][Sar][hPhe(3-Cl-4-CF3)]P)) | 130 | > 500 |
| CC[C@H](C)[C@@H]1NC(=O)[C@H](CCC(C)C)N(C)C(=O)C[C@@H](C(=O)N2CCOCC2)N(C)C(=O)[C@H]([C@@H](C)CC)N(C)C(=O)C2(CCCC2)NC(=O)[C@@H]2CCCN2C(=O)[C@H](CCc2ccc(C(F)(F)F)c(Cl)c2)NC(=O)CN(C)C(=O)[C@H](Cc2ccc(C(F)(F)F)cc2)N(C)C(=O)[C@@H]2CCN2C(=O)[C@H](C)NC1=O [Compound 1356] ([NMehLeu]IA[Aze][NMePhe(4-CF3)][Sar][hPhe(3-Cl-4-CF3)]P[Ac5c][NMeI][NMeD]-Morpholide; lactam N-11) | 1.1 | ≤ 20 |
| CCCCC[C@H]1C(=O)N[C@@H]([C@@H](C)CC)C(=O)N(C)[C@@H](C)C(=O)N2CC[C@H]2C(=O)N(C)[C@@H](Cc2ccc(C)cc2)C(=O)N(C)CC(=O)N[C@@H](CCc2ccc(C(F)(F)F)c(Cl)c2)C(=O)N2CCC[C@H]2C(=O)NC2(CCCC2)C(=O)N(C)[C@@H]([C@@H](C)CC)C(=O)N(C)[C@H](C(=O)N(C)C)CC(=O)N1C [Compound 896] ([NMeAhp(2)]I[NMeA][Aze][NMePhe(4-Me)][Sar][hPhe(3-Cl-4-CF3)]P[Ac5c][NMeI][NMeD]-NMe2; lactam N-11) | 1.1 | ≤ 20 |
| CC[C@H](C)[C@@H]1NC(=O)[C@H](C)N(C)C(=O)C[C@@H](C(=O)N2CCOCC2)N(C)C(=O)[C@H](C(C)C)N(C)C(=O)C2(CCCC2)NC(=O)[C@@H]2CCCN2C(=O)[C@H](CCc2ccc(C(F)(F)F)c(Cl)c2)NC(=O)[C@@H](C)N(C)C(=O)[C@H](CC2CCCCC2)N(C)C(=O)[C@@H]2CCN2C(=O)[C@H](C)N(C)C1=O [Compound 1664] ([NMeA]I[NMeA][Aze][NMeCha][dNMeA][hPhe(3-Cl-4-CF3)]P[Ac5c][NMeV][NMeD]-Morpholide; lactam N-11) | 8.8 | > 500 |
| CC[C@H](C)[C@@H]1NC(=O)[C@H](CC(C)C)N(C)C(=O)C[C@@H](C(=O)N2CCCCC2)N(C)C(=O)[C@H](C(C)C)N(C)C(=O)C2(CCCCC2)NC(=O)[C@@H]2CCCN2C(=O)[C@H](CCc2ccc(C(F)(F)F)c(Cl)c2)NC(=O)CN(C)C(=O)[C@H](CC2CCCCC2)N(C)C(=O)[C@@H]2CCN2C(=O)[C@H](C)N(C)C1=O [Compound 1708] ([NMeL]I[NMeA][Aze][NMeCha][Sar][hPhe(3-Cl-4-CF3)]P[Ac6c][NMeV][NMeD]-Piperidide; lactam N-11) | 10 | > 500 |
| CC[C@H](C)[C@@H]1NC(=O)[C@H](CC(C)C)N(C)C(=O)C[C@@H](C(=O)N2CCOCC2)N(C)C(=O)[C@H](C2CCCC2)N(C)C(=O)C2(CCCC2)NC(=O)[C@@H]2CCCN2C(=O)[C@H](CCc2cc(F)c(C(F)(F)F)c(F)c2)NC(=O)CN(C)C(=O)[C@H](CC2CCCCC2)N(C)C(=O)[C@@H]2CCN2C(=O)[C@H](C)N(C)C1=O [Compound 1308] ([NMeL]I[NMeA][Aze][NMeCha][Sar][hPhe(3,5-F2-4-CF3)]P[Ac5c][NMeGly(cPent)][NMeD]-Morpholide; lactam N-11) | 0.65 | ≤ 20 |
| CC[C@H](C)[C@@H]1NC(=O)[C@H](CC(C)C)N(C)C(=O)C[C@@H](C(=O)N2CCCCC2)N(C)C(=O)[C@H](C2CCCCC2)N(C)C(=O)C2(CCCC2)NC(=O)[C@H](C)NC(=O)[C@H](CCc2ccc(C(F)(F)F)c(Cl)c2)NC(=O)CN(C)C(=O)[C@H](CC2CCCCC2)N(C)C(=O)CN(C)C(=O)CN(C)C1=O [Compound 205] ([NMeL]I[Sar][Sar][NMeCha][Sar][hPhe(3-Cl-4-CF3)]A[Ac5c][NMeChg][NMeD]-Piperidide; lactam N-11) | 0.49 | > 500 |
| CC[C@H](C)[C@@H]1NC(=O)[C@H](COCC(C)(C)O)N(C)C(=O)C[C@@H](C)NC(=O)[C@H](CC(C)C)N(C)C(=O)C(C)(C)NC(=O)[C@H](CC(C)C)N(C)C(=O)[C@H](CCc2ccc(C(F)(F)F)c(Cl)c2)NC(=O)CN(C)C(=O)[C@H](COCCC(C)C)N(C)C(=O)CN(C)C(=O)CN(CC)C1=O [Compound 1476] (cyclo([Aib][NMeL][d(β3hA)][NMeS](CH2CMe2OH)I[NEtG][Sar][NMeS](Isopentyl)[Sar][hPhe(3-Cl-4-CF3)][NMeL])) | 46 | > 500 |
| CC[C@H](C)[C@@H]1NC(=O)[C@H](C)N(C)C(=O)C[C@@H](C)NC(=O)[C@H](CC(C)C)N(C)C(=O)C2(CCCC2)NC(=O)[C@H](CC(C)C)N(C)C(=O)[C@H](CCc2ccc(C(F)(F)F)c(Cl)c2)NC(=O)CN(C)C(=O)[C@H](CC2CCCCC2)N(C)C(=O)CN(C)C(=O)CN(C)C1=O [Compound 61] (cyclo([Ac5c][NMeL][d(β3hA)][NMeA]I[Sar][Sar][NMeCha][Sar][hPhe(3-Cl-4-CF3)][NMeL])) | 16 | > 500 |
| CC[C@H](C)[C@@H]1NC(=O)[C@H](CC(C)C)N(C)C(=O)CSC[C@@H](C(=O)N(C)C)N(C)C(=O)[C@H]([C@@H](C)CC)N(C)C(=O)C2(CCCC2)NC(=O)[C@@H]2CCCN2C(=O)[C@H](CCc2ccc(C(F)(F)F)c(Cl)c2)NC(=O)CN(C)C(=O)[C@H](Cc2ccc(C)cc2)N(C)C(=O)CN(C)C(=O)CN(C)C1=O [Compound 2178] ({CH2CO}-[NMeL]I[Sar][Sar][NMePhe(4-Me)][Sar][hPhe(3-Cl-4-CF3)]P[Ac5c][NMeI][NMeC]-NMe2; thioether N-11) | 160 | > 500 |
| CC[C@H](C)[C@@H]1NC(=O)[C@H](CC(C)C)N(C)C(=O)C[C@@H](C(=O)N2CCOCC2)N(C)C(=O)[C@H](C2CCCC2)N(C)C(=O)C2(CCCC2)NC(=O)[C@@H]2CCCN2C(=O)[C@H](CCc2ccc(C(F)(F)F)c(Cl)c2)NC(=O)CN(CC)C(=O)[C@H](CC2CCCCC2)N(C)C(=O)[C@@H]2CCN2C(=O)[C@H](C)N(C)C1=O [Compound 1272] ([NMeL]I[NMeA][Aze][NMeCha][NEtG][hPhe(3-Cl-4-CF3)]P[Ac5c][NMeGly(cPent)][NMeD]-Morpholide; lactam N-11) | 2 | ≤ 20 |
| CCO[C@@H]1C[C@H]2C(=O)NC3(CCCC3)C(=O)N(C)[C@@H](C3CCCCC3)C(=O)N(C)[C@H](C(=O)N3CCCC3)CC(=O)N(C)[C@@H](C3CCC3)C(=O)N[C@@H]([C@@H](C)CC)C(=O)N(C)CC(=O)N(C)CC(=O)N(C)[C@@H](CC3CCCCC3)C(=O)N(C)CC(=O)N[C@@H](CCc3cc(F)c(C(F)(F)F)c(F)c3)C(=O)N2C1 [Compound 1144] ([NMeGly(cBu)]I[Sar][Sar][NMeCha][Sar][hPhe(3,5-F2-4-CF3)][Hyp](Et)[Ac5c][NMeChg][NMeD]-Pyrrolidide; lactam N-11) | 0.49 | ≤ 20 |
| CC[C@H](C)[C@@H]1NC(=O)[C@H](CC(C)C)N(C)C(=O)C[C@@H](C)N(C)C(=O)[C@H]([C@@H](C)CC)N(C)C(=O)C2(CCCC2)NC(=O)[C@@H]2CC(F)(F)CN2C(=O)[C@H](CCc2ccc(C(F)(F)F)c(Cl)c2)NC(=O)CN(C)C(=O)[C@H](Cc2ccc(C(F)(F)F)cc2)N(C)C(=O)[C@@H]2CCN2C(=O)[C@H](C)N(C)C1=O [Compound 668] (cyclo([Ac5c][NMeI][NMedβ3hAla][NMeL]I[NMeA][Aze][NMePhe(4-CF3)][Sar][hPhe(3-Cl-4-CF3)][Pro(4,4-F2)])) | 1.9 | ≤ 20 |
| CC[C@H](C)[C@@H]1NC(=O)[C@H](CCC(C)C)N(C)C(=O)C[C@@H](C(=O)N(C)C)N(C)C(=O)[C@H]([C@@H](C)CC)N(C)C(=O)C2(CCCC2)NC(=O)[C@@H]2CCCN2C(=O)[C@H](CCc2ccc(C(F)(F)F)c(Cl)c2)NC(=O)CN(C)C(=O)[C@H](Cc2ccc(C)cc2)N(C)C(=O)[C@@H]2CCN2C(=O)[C@H](C)N(C)C1=O [Compound 1042] ([NMehLeu]I[NMeA][Aze][NMePhe(4-Me)][Sar][hPhe(3-Cl-4-CF3)]P[Ac5c][NMeI][NMeD]-NMe2; lactam N-11) | 0.72 | ≤ 20 |
| CC[C@H](C)[C@@H]1NC(=O)[C@H](CC(C)C)N(C)C(=O)C[C@@H](C(=O)N2CCCCC2)N(C)C(=O)[C@H](C2CCCCC2)N(C)C(=O)C2(CCCC2)NC(=O)[C@H](Cc2ccc(C(F)(F)F)nc2)N(C)C(=O)[C@H](CCc2ccc(C(F)(F)F)c(Cl)c2)NC(=O)CN(C)C(=O)[C@H](CC2CCCCC2)N(C)C(=O)CN(C)C(=O)CN(C)C1=O [Compound 10] ([NMeL]I[Sar][Sar][NMeCha][Sar][hPhe(3-Cl-4-CF3)][X27][Ac5c][NMeChg][NMeD]-Piperidide; lactam N-11) | 18 | > 500 |
